Data published in US20100286200A1, “COMBINATION OF METFORMIN AND AN MTP INHIBITOR” (JANSSEN PHARMACEUTICA NV, priority 2008, published 2010).

Legend:
[1] = cited from earlier work
[2] = system: subjects with type 2 diabetes mellitus undergoing metformin treatment; assay: Proof-of-concept 12-week double-blind, randomized, placebo-controlled study of the MTP inhibitor in subjects on metformin treatment; assay type: in vivo, human
From the text: Proof-of-concept study of combinations of metformin and the MTP inhibitor (+)-phenyl-(4-{4-[(4′-trifluoromethyl-biphenyl-2-carbonyl)-amino]-phenyl}-piperidin-1-yl)-acetic acid methyl ester
Safety and efficacy of the MTP inhibitor (+)-phenyl-(4-{4-[(4′-trifluoromethyl-biphenyl-2-carbonyl)-amino]-phenyl}-piperidin-1-yl)-acetic acid methyl ester in the treatment of subjects with type 2 diabetes mellitus undergoing metformin treatment has been investigated. Three dosing regimens of the MTP inhibitor, 5-10-15 mg bid, were compared to placebo in a double-blind, randomized, parallel-group study design of 12 weeks wherein all subjects were following metformin treatment. All subjects remained on a calorically appropriate, low fat (≦30%) diet, being in accordance with the local practice guidelines for the treatment of type 2 diabetes.
Subjects randomized into the study had to have type 2 diabetes for at least 3 months and remained on a stable metformin monotherapy for at least 2 months. There were 88, 84, 91 and 89 patients randomized to placebo, 5 mg, 10 mg and 15 mg BID. Mean age was 55 years and there were slightly more males than females randomized into the study (males:females—54%:46%).
The mean baseline glycosylated hemoglobin (HbA1c) was 7.8±0.8% (mean±SD) and the mean plasma glucose was 9.1±1.80 mmol/L (mean±SD). The majority (68%) of subjects had HbA1c levels≦8%.
Mean weight at baseline was 94.9 kg and varied between 92.8 kg and 96.7 kg in different treatment groups, while the mean baseline BMI was 32.8 kg/m^2.

[3] = 5 mg bid, with metformin, week 12
[4] = 10 mg bid and 15 mg bid, combination with metformin
[5] = 10 mg bid, with metformin, Week 12
[6] = 15 mg bid, with metformin, Week 12

SMILES: COC(=O)C(c1ccccc1)N1CCC(c2ccc(NC(=O)c3ccccc3-c3ccc(C(F)(F)F)cc3)cc2)CC1 (single isomer, unassigned; (+)) [(+)-phenyl-(4-{4-[(4′-trifluoromethyl-biphenyl-2-carbonyl)-amino]-phenyl}-piperidin-1-yl)-acetic acid methyl ester]
- metabolism in the plasma [1]: rapidly metabolised in the plasma
- systemic plasma concentrations [1]: very low systemic plasma concentrations
- mean body weight loss at Week 12 ([2]; 5 mg bid, with metformin): 1.71 kg
- mean body weight loss at Week 12 (percent) ([2]; 5 mg bid, with metformin): 1.0%
- mean percentage change from baseline at week 12 in fasting plasma glucose (FPG) ([2]; 5 mg bid, with metformin): −2.3%
- mean decrease in HbA1c (%), change from baseline at Week 12 ([2]; 5 mg bid, with metformin, Week 12, baseline HbA1c 7.8±0.8%): −0.46%
- HbA1c least square mean (mixed model) difference from placebo [2, 3]: 0.19
- absolute change from baseline in FPG (decrease) [2, 3]: 0.37 mmol/L
- LDL levels (fasting plasma lipids) [2, 4]: Beneficial effects
- ratio of LDL over HDL (fasting plasma lipids) [2, 4]: Beneficial effects
- mean body weight loss at Week 12 ([2]; 10 mg bid, with metformin): 2.80 kg
- mean body weight loss at Week 12 (percent) ([2]; 10 mg bid, with metformin): 2.9%
- mean percentage change from baseline at week 12 in fasting plasma glucose (FPG) ([2]; 10 mg bid, with metformin): −6.1%
- HbA1c least square mean (mixed model) difference from placebo [2, 5]: 0.28
- absolute change from baseline in FPG (decrease) [2, 5]: 0.063 mmol/L
- mean decrease in HbA1c (%), change from baseline at Week 12 [2, 5]: −0.55%
- mean body weight loss at Week 12 ([2]; 15 mg bid, with metformin): 3.37 kg
- mean body weight loss at Week 12 (percent) ([2]; 15 mg bid, with metformin): 3.6%
- mean percentage change from baseline at week 12 in fasting plasma glucose (FPG) ([2]; 15 mg bid, with metformin): −6.0%
- HbA1c least square mean (mixed model) difference from placebo [2, 6]: 0.28
- absolute change from baseline in FPG (decrease) [2, 6]: 0.63 mmol/L
- mean decrease in HbA1c (%), change from baseline at Week 12 [2, 6]: −0.54%
- change from baseline at Week 12 of HbA1c levels vs. placebo (mixed model analysis) ([2]; all active treatment arms (5, 10, 15 mg bid), with metformin): statistically significant decrease vs. placebo
